Experimental data reported in patent publication US10221173B2, “Chemical compounds” (AstraZeneca AB, priority 2017, dated 2019).
≈ marks a conversion by molar mass, not a printed value. Each block holds one compound with its values, some of them ahead of it.

Assays:
[1] = molecular target: recombinant human Estrogen Receptor alpha ligand binding domain (ER alpha-LBD (GST)) (Homo sapiens (Human), UniProt P03372); experiment: ERα binding assay (LanthaScreen TR-FRET competition)
[2] = molecular target: Estrogen Receptor (ERα) in MCF-7 cells (Homo sapiens (Human), UniProt P03372); experiment: MCF-7 ER down-regulation assay (immuno-fluorescence); assay type: cell-based
Estrogen Receptor (ERα) in MCF-7 cells, sequence (P03372 whole entry): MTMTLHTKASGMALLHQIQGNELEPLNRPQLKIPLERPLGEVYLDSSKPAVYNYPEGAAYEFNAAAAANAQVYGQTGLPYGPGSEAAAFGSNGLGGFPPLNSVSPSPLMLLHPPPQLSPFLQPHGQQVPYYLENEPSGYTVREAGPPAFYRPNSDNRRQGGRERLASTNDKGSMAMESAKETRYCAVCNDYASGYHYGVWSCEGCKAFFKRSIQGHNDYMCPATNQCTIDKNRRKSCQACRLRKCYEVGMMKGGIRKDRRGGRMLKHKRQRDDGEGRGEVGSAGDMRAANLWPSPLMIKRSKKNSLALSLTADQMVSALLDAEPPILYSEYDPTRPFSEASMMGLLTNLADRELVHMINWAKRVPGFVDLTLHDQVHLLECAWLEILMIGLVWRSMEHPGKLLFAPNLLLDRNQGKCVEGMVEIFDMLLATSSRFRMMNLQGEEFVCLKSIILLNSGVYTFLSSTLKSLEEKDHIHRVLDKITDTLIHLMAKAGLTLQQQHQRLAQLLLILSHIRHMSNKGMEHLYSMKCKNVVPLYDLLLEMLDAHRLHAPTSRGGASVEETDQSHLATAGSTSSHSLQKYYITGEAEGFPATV

[3] = Human plasma protein binding (equilibrium dialysis); assay type: in vitro ADME
[4] = Log D (shake flask, 1-octanol/aqueous buffer); assay type: physicochemical
[5] = Thermodynamic solubility (shake-flask); assay type: physicochemical; details: phosphate buffer pH 7.4, 24 hours
[6] = 1-octanol/aqueous buffer, pH 7.4, pH 7.4
[7] = aqueous phosphate buffer, 25 °C, pH 7.4, aqueous buffer, thermodynamic from solid

recombinant human Estrogen Receptor alpha ligand binding domain (ER alpha-LBD (GST)), sequence (P03372 307-554): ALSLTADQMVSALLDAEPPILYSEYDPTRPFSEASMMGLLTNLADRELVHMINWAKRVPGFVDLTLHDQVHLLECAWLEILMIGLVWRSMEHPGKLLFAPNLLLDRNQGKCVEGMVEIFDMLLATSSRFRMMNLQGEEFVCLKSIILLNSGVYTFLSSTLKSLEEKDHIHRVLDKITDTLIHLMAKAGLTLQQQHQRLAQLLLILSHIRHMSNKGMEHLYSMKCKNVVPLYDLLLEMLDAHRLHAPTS

SMILES: CC(CN1[C@H](c2c(Cl)ccc(OCCNCCCF)c2Cl)c2[nH]c3ccc(F)cc3c2C[C@H]1C)C(=O)O (single isomer, unassigned) [Example 129]
- IC50 [1]: 8.9 nM
- IC50 [2]: 2.6 nM
- Human plasma protein binding (% free) [3]: 23 % free
- logD [4, 6]: 1.5
- solubility at 24 h [5, 7]: 953 µM (≈ 528 µg/mL)

SMILES: CC(CN1[C@H](c2c(Cl)ccc(OCCNCCCF)c2Cl)c2[nH]c3ccc(F)cc3c2C[C@H]1C)C(=O)O (single isomer, unassigned) [Example 130]
- IC50 [1]: 1.8 nM
- IC50 [2]: 1.3 nM
- Human plasma protein binding (% free) [3]: 7.8 % free
- LogD pH 7.4 ([4]; pH 7.4): 1.5
- solubility at 24 h ([5]; 25° C.): 854 µM (≈ 474 µg/mL)

SMILES: COc1c(OCCNCCCF)cccc1[C@@H]1c2[nH]c3ccccc3c2C[C@@H](C)N1CC1(F)COC1 [Example 5, 3-fluoro-N-(2-(3-((1R,3R)-2-((3-fluorooxetan-3-yl)methyl)-3-methyl-2,3,4,9-tetrahydro-1H-pyrido[3,4-b]indol-1-yl)-2-methoxyphenoxy)ethyl)propan-1-amine]
- IC50 [1]: 45 nM
- IC50 [2]: 25 nM
- solubility at 24 h [5, 7]: 357 µM (≈ 178 µg/mL)

SMILES: COc1cc(F)c(OCCNCCCF)cc1[C@@H]1c2[nH]c3ccccc3c2C[C@@H](C)N1CC(F)(F)F [Example 28, 3-fluoro-N-(2-(2-fluoro-4-methoxy-5-((1R,3R)-3-methyl-2-(2,2,2-trifluoroethyl)-2,3,4,9-tetrahydro-1H-pyrido[3,4-b]indol-1-yl)phenoxy)ethyl)propan-1-amine]
- IC50 [1]: 2.8 nM
- IC50 [2]: 0.8 nM
- Human plasma protein binding (% free) [3]: 1.2 % free
- logD [4, 6]: 3.8
- solubility at 24 h [5, 7]: 40 µM (≈ 20.5 µg/mL)

- IC50 [2]: 0.19 nM
- Human plasma protein binding (% free) [3]: 0.91 % free
SMILES: Cc1c(OCCNCCCF)cncc1[C@@H]1c2[nH]c3ccccc3c2C[C@@H](C)N1CC(F)(F)F [Example 38, 3-fluoro-N-(2-((4-methyl-5-((1R,3R)-3-methyl-2-(2,2,2-trifluoroethyl)-2,3,4,9-tetrahydro-1H-pyrido[3,4-b]indol-1-yl)pyridin-3-yl)oxy)ethyl)propan-1-amine]

SMILES: COc1ccc(OC[C@H](C)NCCCF)cc1[C@@H]1c2[nH]c3ccccc3c2C[C@@H](C)N1CC(F)(F)CO [Example 49, 2,2-difluoro-3-((1R,3R)-1-(5-((S)-2-((3-fluoropropyl)amino)propoxy)-2-methoxyphenyl)-3-methyl-1,3,4,9-tetrahydro-2H-pyrido[3,4-b]indol-2-yl)propan-1-ol]
- IC50 [1]: 1.2 nM
- IC50 [2]: 0.15 nM
- logD [4, 6]: 2.8
- solubility at 24 h [5, 7]: 335 µM (≈ 174 µg/mL)

SMILES: COc1ccc(OC[C@@H](C)NCCCF)cc1[C@@H]1c2[nH]c3ccccc3c2C[C@@H](C)N1CC(F)(F)CO [Example 50, 2,2-difIuoro-3-((1R,3R)-1-(5-((S)-2-((3-fluoropropyl)amino)propoxy)-2-methoxyphenyl)-3-methyl-1,3,4,9-tetrahydro-2H-pyrido[3,4-b]indol-2-yl)propan-1-ol]
- IC50 [1]: 1 nM
- IC50 [2]: 0.81 nM
- % downregulation (in brackets) ([2]; maximum downregulation): 81%
- Human plasma protein binding (% free) [3]: 7.1 % free
- logD [4, 6]: 2.8
- solubility at 24 h [5, 7]: 461 µM (≈ 240 µg/mL)

SMILES: COc1ccc(OCCNCCCF)nc1[C@@H]1c2[nH]c3ccccc3c2C[C@@H](C)N1CC(F)(F)F [Example 56, 3-fluoro-N-(2-((5-methoxy-6-((1S,3R)-3-methyl-2-(2,2,2-trifluoroethyl)-2,3,4,9-tetrahydro-1H-pyrido[3,4-b]indol-1-yl)pyridin-2-yl)oxy)ethyl)propan-1-amine]
- IC50 [1]: 39 nM
- IC50 [2]: 14 nM
- Human plasma protein binding (% free) [3]: 4.6 % free
- logD [4, 6]: 2.7
- solubility at 24 h [5, 7]: 445 µM (≈ 220 µg/mL)

SMILES: C[C@@H]1Cc2c([nH]c3ccccc23)[C@@H](c2cccc(OCCNCCCF)c2C#N)N1CC(F)(F)F [Example 69, 2-(2-((3-fluoropropyl)amino)ethoxy)-6-((1R,3R)-3-methyl-2-(2,2,2-trifluoroethyl)-2,3,4,9-tetrahydro-1H-pyrido[3,4-b]indol-1-yl)benzonitrile]
- IC50 [1]: 1.4 nM
- IC50 [2]: 1.5 nM
- Human plasma protein binding (% free) [3]: 2.2 % free
- logD [4, 6]: 3.6
- solubility at 24 h [5, 7]: 150 µM (≈ 73.3 µg/mL)

SMILES: COc1ccc(OCCNCCC(F)(F)F)cc1[C@@H]1c2[nH]c3ccccc3c2C[C@@H](C)N1CC(F)(F)F [Example 72, 3,3,3-trifluoro-N-(2-(4-methoxy-3-((1R,3R)-3-methyl-2-(2,2,2-trifluoroethyl)-2,3,4,9-tetrahydro-1H-pyrido[3,4-b]indol-1-yl)phenoxy)ethyl)propan-1-amine]
- IC50 [1]: 1.4 nM
- IC50 [2]: 0.49 nM
- Human plasma protein binding (% free) [3]: <0.1 % free
- logD [4, 6]: 5.2
- solubility at 24 h [5, 7]: < 0.2 µM

SMILES: C[C@@H]1Cc2c([nH]c3ccccc23)[C@@H](c2c(Cl)ccc(OCCNCCCF)c2F)N1CC(F)(F)F [Example 78, N-(2-(4-chloro-2-fluoro-3-((1R,3R)-3-methyl-2-(2,2,2-trifluoroethyl)-2,3,4,9-tetrahydro-1H-pyrido[3,4-b]indol-1-yl)phenoxy)ethyl)-3-fluoropropan-1-amine]
- IC50 [1]: 1.3 nM
- IC50 [2]: 0.12 nM
- Human plasma protein binding (% free) [3]: 0.21 % free
- logD [4, 6]: 4
- solubility at 24 h [5, 7]: 26 µM (≈ 13.4 µg/mL)

- solubility at 24 h [5, 7]: 13 µM (≈ 6.44 µg/mL)
SMILES: Cc1ccc(OCCNCCCF)c(F)c1[C@@H]1c2[nH]c3ccccc3c2C[C@@H](C)N1CC(F)(F)F [Example 80, 3-fluoro-N-(2-(2-fluoro-4-methyl-3-((1R,3R)-3-methyl-2-(2,2,2-trifluoroethyl)-2,3,4,9-tetrahydro-1H-pyrido[3,4-b]indol-1-yl)phenoxy)ethyl)propan-1-amine]

SMILES: COc1ccc(OCCNCCCF)c(F)c1[C@@H]1c2[nH]c3ccccc3c2C[C@@H](C)N1CC(F)F [Example 82, N-(2-(3-((1R,3R)-2-(2,2-difluoroethyl)-3-methyl-2,3,4,9-tetrahydro-1H-pyrido[3,4-b]indol-1-yl)-2-fluoro-4-methoxyphenoxy)ethyl)-3-fluoropropan-1-amine]
- IC50 [1]: 0.8 nM
- IC50 [2]: 0.042 nM
- Human plasma protein binding (% free) [3]: 1.9 % free
- logD ([4]; pH 7.4): 2.9
- solubility at 24 h ([5]; aqueous buffer, thermodynamic from solid, 25° C.): 475 µM (≈ 234 µg/mL)

SMILES: Cc1c(OCCNCCCF)ccc(F)c1[C@@H]1c2[nH]c3ccccc3c2C[C@@H](C)N1CCC#N [Example 87, 3-((1R,3R)-1-(6-fluoro-3-(2-((3-fluoropropyl)amino)ethoxy)-2-methylphenyl)-3-methyl-1,3,4,9-tetrahydro-2H-pyrido[3,4-b]indol-2-yl)propanenitrile]
- IC50 [1]: 0.54 nM
- IC50 [2]: 0.065 nM
- Human plasma protein binding (% free) [3]: 1.6 % free
- logD [4, 6]: 3.1
- solubility at 24 h [5, 7]: 71 µM (≈ 33.1 µg/mL)

SMILES: C[C@@H]1Cc2c([nH]c3ccccc23)[C@@H](c2cncc(OCCNCCCF)c2)N1CC(F)(F)F [Example 101, 3-fluoro-N-(2-((5-((1R,3R)-3-methyl-2-(2,2,2-trifluoroethyl)-2,3,4,9-tetrahydro-1H-pyrido[3,4-b]indol-1-yl)pyridin-3-yl)oxy)ethyl)propan-1-amine]
- IC50 [1]: 9.2 nM
- IC50 [2]: 27 nM
- Human plasma protein binding (% free) [3]: 8.4 % free
- logD [4, 6]: 3.3
- solubility at 24 h [5, 7]: 329 µM (≈ 153 µg/mL)

SMILES: C[C@@H]1Cc2c([nH]c3ccccc23)[C@@H](c2ccnc(OCCNCCCF)c2Cl)N1CC(F)(F)CO [Example 104, 3-((1R,3R)-1-(3-chloro-2-(2-((3-fluoropropyl)amino)ethoxy)pyridin-4-yl)-3-methyl-1,3,4,9-tetrahydro-2H-pyrido[3,4-b]indol-2-yl)-2,2-difluoropropan-1-ol]
- IC50 [1]: 0.72 nM
- IC50 [2]: 0.17 nM
- Human plasma protein binding (% free) [3]: 2.8 % free
- logD [4, 6]: 3
- solubility at 24 h [5, 7]: 431 µM (≈ 220 µg/mL)

SMILES: C[C@@H]1Cc2c([nH]c3ccccc23)[C@@H](c2cc(OCCNCCCF)ncn2)N1CC(F)(F)F [Example 113, 3-fluoro-N-(2-((6-((1S,3R)-3-methyl-2-(2,2,2-trifluoroethyl)-2,3,4,9-tetrahydro-1H-pyrido[3,4-b]indol-1-yl)pyrimidin-4-yl)oxy)ethyl)propan-1-amine]
- IC50 [1]: 17 nM
- IC50 [2]: > 300 nM
- logD [4, 6]: 4.1
- solubility at 24 h [5, 7]: < 1.6 µM

- solubility at 24 h [5, 7]: > 1000 µM
SMILES: Cc1c(OCCNCCCF)ccc(F)c1[C@@H]1c2[nH]c3ccccc3c2C[C@@H](C)N1CCC(=O)O [Example 116, 3-((1R,3R)-1-(6-fluoro-3-(2-((3-fluoropropyl)amino)ethoxy)-2-methylphenyl)-3-methyl-1,3,4,9-tetrahydro-2H-pyrido[3,4-b]indol-2-yl)propanoic acid]

- Human plasma protein binding (% free) [3]: 32 % free
- logD [4, 6]: 1.2
- solubility at 24 h [5, 7]: > 1000 µM
SMILES: C[C@@H]1Cc2c([nH]c3ccccc23)[C@@H](c2c(F)ccc(OCCNCCCF)c2Cl)N1CC(C)(C)C(=O)O [Example 131, 3-((1R,3R)-1-(2-chloro-6-fluoro-3-(2-((3-fluoropropyl)amino)ethoxy)phenyl)-3-methyl-1,3,4,9-tetrahydro-2H-pyrido[3,4-b]indol-2-yl)-2,2-dimethylpropanoic acid]

SMILES: Cc1c(N(C)CCN(C)CCCF)ccc(F)c1[C@@H]1c2[nH]c3ccccc3c2C[C@@H](C)N1C[C@H](C)C(=O)O [Example 147, (S)-3-((1R,3R)-1-(6-fluoro-3-((2-((3-fluoropropyl)(methyl)amino)ethyl)(methyl)amino)-2-methylphenyl)-3-methyl-1,3,4,9-tetrahydro-2H-pyrido[3,4-b]indol-2-yl)-2-methylpropanoic acid]
- IC50 [1]: 51 nM
- Human plasma protein binding (% free) [3]: 19 % free

- Human plasma protein binding (% free) [3]: 27 % free
- logD [4, 6]: 1.8
- solubility at 24 h [5, 7]: > 1000 µM
SMILES: Cc1c(OCCNCCC(F)F)ccc(F)c1[C@@H]1c2[nH]c3ccc(F)cc3c2C[C@@H](C)N1C[C@@H](C)C(=O)O [Example 162, (R)-3-((1R,3R)-1-(3-(2-((3,3-difluoropropyl)amino)ethoxy)-6-fluoro-2-methylphenyl)-6-fluoro-3-methyl-1,3,4,9-tetrahydro-2H-pyrido[3,4-b]indol-2-yl)-2-methylpropanoic acid]
